These are literature values, as cited in US20080247957A1, “Advanced drug delivery strategy and platform for minimally-invasive treatment of liver cancer” (Drexel University, priority 2007, published 2008).

For this data set the following is noted: in the body.

For `O=c1[nH]cc(F)c(=O)[nH]1` [5 fluorouracil], the half life result is listed as “less than 5 min”.
